According to article PMC5469273, “Discovery of Novel Small-Molecule Inhibitors of LIM Domain Kinase for Inhibiting HIV-1” (Journal of Virology, 2017):

What was measured:
HIV-1(VSV G) = format: cell-based; settings: 100 μM
HIV-1(Nef-luciferase) = assay: Nef-luciferase-based viral entry assay; format: cell-based; settings: 100 μM; data not shown
Rev-CEM-GFP-Luc cells = settings: 4 h treatment; all concentrations tested up to 200 μM
BTK = BTK (Homo sapiens, UniProt Q06187); assay: Kinase profiling (Reaction Biology): BTK
JNK1 = JNK1 (Homo sapiens, UniProt P45983); assay: Kinase profiling (Reaction Biology): JNK1
ROCK2 = ROCK2 (Homo sapiens, UniProt O75116); assay: Kinase profiling (Reaction Biology): ROCK2
STK16 = STK16 (Homo sapiens, UniProt O75716); assay: Kinase profiling (Reaction Biology): STK16
CAMK2b = CAMK2b (Homo sapiens, UniProt Q13554); assay: Kinase profiling (Reaction Biology): CAMK2b
Aurora A = Aurora A (Homo sapiens, UniProt O14965); assay: Kinase profiling (Reaction Biology): Aurora A
[1] = system: cofilin serine 3 phosphorylation; assay: Western blotting for cofilin serine 3 phosphorylation in CEM-SS T cells; settings: 100 μM, time course

Chain of ROCK2 (O75116 whole entry): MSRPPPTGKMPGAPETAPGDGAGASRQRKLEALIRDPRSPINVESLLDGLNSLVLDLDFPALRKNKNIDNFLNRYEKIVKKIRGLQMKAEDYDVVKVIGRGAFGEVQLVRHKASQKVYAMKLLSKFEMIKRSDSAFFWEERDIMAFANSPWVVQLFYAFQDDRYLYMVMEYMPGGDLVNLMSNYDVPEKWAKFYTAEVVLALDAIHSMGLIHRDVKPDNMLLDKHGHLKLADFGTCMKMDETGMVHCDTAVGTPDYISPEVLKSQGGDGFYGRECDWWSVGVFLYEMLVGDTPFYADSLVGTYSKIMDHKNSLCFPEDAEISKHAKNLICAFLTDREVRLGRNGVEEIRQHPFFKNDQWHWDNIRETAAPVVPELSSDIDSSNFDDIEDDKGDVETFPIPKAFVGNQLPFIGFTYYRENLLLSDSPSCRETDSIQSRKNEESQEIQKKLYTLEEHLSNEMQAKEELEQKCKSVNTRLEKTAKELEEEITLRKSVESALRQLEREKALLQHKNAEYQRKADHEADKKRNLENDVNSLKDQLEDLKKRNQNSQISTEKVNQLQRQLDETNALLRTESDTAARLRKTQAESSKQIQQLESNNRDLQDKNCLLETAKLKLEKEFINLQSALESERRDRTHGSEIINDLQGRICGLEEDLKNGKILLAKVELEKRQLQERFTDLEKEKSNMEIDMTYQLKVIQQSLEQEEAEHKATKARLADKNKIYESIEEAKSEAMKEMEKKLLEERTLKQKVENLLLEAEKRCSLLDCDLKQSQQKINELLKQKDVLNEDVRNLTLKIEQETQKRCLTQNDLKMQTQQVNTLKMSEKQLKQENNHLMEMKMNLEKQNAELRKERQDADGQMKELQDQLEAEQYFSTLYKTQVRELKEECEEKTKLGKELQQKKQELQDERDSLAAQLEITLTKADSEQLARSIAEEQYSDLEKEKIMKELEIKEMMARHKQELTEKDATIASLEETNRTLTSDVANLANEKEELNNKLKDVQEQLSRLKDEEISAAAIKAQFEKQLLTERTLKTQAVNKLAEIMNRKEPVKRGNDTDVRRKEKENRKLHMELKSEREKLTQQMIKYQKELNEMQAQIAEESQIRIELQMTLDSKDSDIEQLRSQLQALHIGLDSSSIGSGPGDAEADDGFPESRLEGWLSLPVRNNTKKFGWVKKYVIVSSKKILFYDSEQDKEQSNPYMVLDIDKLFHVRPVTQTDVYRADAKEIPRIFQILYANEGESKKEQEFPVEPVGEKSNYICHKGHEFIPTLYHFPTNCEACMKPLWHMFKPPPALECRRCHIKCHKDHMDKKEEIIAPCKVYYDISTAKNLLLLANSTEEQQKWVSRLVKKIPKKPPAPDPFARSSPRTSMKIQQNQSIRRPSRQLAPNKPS
Chain of STK16 (O75716 whole entry): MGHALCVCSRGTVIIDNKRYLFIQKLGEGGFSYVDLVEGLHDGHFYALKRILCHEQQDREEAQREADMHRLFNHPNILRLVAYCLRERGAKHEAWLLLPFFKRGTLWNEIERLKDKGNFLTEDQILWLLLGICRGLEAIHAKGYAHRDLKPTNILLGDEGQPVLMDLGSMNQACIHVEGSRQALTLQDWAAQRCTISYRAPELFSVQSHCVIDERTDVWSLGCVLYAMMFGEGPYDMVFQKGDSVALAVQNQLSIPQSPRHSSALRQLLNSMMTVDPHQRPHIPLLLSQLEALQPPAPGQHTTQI
Chain of BTK (Q06187 whole entry): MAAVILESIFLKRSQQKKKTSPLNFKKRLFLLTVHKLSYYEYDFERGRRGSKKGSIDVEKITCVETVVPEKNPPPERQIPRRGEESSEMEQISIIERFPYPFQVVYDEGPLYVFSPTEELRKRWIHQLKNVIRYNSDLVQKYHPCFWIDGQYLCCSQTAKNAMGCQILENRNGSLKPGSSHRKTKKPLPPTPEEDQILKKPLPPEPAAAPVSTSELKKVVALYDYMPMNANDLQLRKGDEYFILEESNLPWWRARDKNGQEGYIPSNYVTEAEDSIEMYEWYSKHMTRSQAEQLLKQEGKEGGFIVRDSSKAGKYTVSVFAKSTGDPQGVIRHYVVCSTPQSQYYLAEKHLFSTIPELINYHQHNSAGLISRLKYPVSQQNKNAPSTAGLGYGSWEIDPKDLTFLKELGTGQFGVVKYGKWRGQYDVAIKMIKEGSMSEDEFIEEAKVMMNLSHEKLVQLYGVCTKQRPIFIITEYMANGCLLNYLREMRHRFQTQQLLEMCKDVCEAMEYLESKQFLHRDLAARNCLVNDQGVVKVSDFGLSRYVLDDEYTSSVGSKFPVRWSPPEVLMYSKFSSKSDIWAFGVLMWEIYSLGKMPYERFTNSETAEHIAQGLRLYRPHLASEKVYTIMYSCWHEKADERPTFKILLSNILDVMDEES
Chain of CAMK2b (Q13554 whole entry): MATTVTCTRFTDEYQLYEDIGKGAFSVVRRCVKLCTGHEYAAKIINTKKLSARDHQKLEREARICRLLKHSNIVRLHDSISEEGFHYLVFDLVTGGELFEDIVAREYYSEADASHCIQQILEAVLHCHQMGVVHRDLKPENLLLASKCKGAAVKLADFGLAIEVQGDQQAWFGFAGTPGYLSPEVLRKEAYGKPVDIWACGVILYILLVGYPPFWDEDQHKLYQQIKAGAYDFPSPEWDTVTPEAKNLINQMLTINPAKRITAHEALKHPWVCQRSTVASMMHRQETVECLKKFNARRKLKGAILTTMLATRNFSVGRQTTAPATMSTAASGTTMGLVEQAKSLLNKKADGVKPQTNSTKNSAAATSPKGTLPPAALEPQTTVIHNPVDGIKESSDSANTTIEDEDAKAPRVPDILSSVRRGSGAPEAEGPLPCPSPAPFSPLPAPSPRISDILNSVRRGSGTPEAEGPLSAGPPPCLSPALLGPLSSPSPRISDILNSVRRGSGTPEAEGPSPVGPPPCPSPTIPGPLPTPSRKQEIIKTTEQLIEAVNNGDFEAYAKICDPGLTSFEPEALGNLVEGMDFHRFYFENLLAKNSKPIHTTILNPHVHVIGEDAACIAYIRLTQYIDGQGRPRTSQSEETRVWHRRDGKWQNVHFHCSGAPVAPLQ
Chain of JNK1 (P45983 whole entry): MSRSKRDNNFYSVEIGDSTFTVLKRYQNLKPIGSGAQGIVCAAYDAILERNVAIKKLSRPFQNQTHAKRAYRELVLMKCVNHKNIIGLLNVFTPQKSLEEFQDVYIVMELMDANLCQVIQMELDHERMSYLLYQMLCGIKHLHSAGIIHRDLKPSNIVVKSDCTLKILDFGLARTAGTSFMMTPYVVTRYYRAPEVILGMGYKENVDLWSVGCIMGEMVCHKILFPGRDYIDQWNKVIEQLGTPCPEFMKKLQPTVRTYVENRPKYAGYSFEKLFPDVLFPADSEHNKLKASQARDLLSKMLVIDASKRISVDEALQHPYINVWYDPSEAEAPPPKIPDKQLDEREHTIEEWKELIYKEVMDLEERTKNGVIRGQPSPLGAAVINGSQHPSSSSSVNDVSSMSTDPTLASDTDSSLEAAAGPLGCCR
Chain of Aurora A (O14965 whole entry): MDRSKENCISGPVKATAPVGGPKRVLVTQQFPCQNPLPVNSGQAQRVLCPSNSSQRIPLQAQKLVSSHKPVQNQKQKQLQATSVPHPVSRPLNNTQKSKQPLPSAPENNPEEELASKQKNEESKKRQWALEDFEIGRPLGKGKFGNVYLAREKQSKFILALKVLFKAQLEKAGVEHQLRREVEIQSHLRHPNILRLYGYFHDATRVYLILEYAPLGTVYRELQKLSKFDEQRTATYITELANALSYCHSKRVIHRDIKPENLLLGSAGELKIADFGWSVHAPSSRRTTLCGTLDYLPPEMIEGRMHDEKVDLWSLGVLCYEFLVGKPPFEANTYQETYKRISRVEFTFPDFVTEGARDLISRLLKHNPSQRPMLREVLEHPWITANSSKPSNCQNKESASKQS

## COC(=O)c1ccc2[nH]c(C3CCN(c4ncnc5[nH]cc(Cl)c45)CC3)nc2c1 [Compound R10015, Methyl 2-(1-(5-chloro-7H-pyrrolo[2,3-d]pyrimidin-4-yl)piperidin-4-yl)-1H-benzo[d]imidazole-5-carboxylate]
HIV-1(VSV G)
  inhibition of early steps of VSV G-pseudotyped HIV: minimally inhibited
HIV-1(Nef-luciferase)
  viral entry, HIV-1(Nef-luciferase): did not significantly inhibit
Rev-CEM-GFP-Luc cells
  cytotoxicity: no detectable cytotoxicity
BTK
  activity at 1 µM: 90.2%
JNK1
  activity at 1 µM: 95.2%
ROCK2
  activity at 1 µM: 29.5%
ROCK2; read-out: inhibition of ROCK2
  inhibition at 1 µM: ~70%
STK16
  activity at 1 µM: 48.6%
CAMK2b
  activity at 1 µM: 90.8%
Aurora A
  activity at 1 µM: 60.3%
[1]
  cofilin serine 3 phosphorylation: drastic inhibition
